Test system: men and women with overactive bladder
Test: Phase 3 study of vibegron 75 mg vs placebo and tolterodine ER 4 mg, 12 weeks, efficacy (voiding and urine volume diary)
Type: in vivo, human
Conditions: for Patients with at Least 50% Reduction in Urgency Episodes, Adjusted n / Patients with at Least 50% Reduction in Urgency Episodes, Unadjusted (%) / Patients with at Least 50% Reduction in Urgency Episodes, Unadjusted n / Urgency 50% responders, Active - Placebo CMH Difference / Patients with at Least 50% Reduction in Urgency Episodes, Adjusted (%): Dry population; for Urgency Episodes, Week 12 CFB Mean: descriptive statistics; for Micturitions: LS Mean (95% CI): Table 32, week 12
Method: Enrollment of patients included individuals with OAB Wet (those with UUI, the involuntary loss of urine accompanied by urgency) and OAB Dry (those without UUI). A total of 1,518 patients were randomized across 215 study sites into one of three groups for a 12-week treatment period.
The study consisted of a Screening Period (1 to 5 weeks), a single-blind Run-in Period (2 weeks), a randomized double-blind Treatment Period (12 weeks), and a Follow-up Period (4 weeks).
Tolterodine ER 4 mg was the active control. […] Between the Baseline and Week 12 Visits, patients had study assessments at Week 4 and Week 8.
The Patient Voiding Diary was used by participants (via the eDiary or paper Diary) to record the frequency of daily OAB symptoms including all micturitions, urgency, incontinence, and main reason for incontinence by selecting the respective box for each symptom occurring during the course of a given day and night.
Urine volume data were collected separately by patients using the Urine Volume component of the eDiary, or the paper Urine Volume Chart. The Urine Volume Chart is a tool used in clinical practice and clinical investigation to assess voiding functions over a 24-hour period and is regarded as a useful instrument in the investigation of patients with voiding symptoms. Urine volume may be collected during any one (1) of the 7 Diary Days prior to the visit, and it should be recorded for ˜24 hours starting from the time the patient gets up for the day and continues until the time the patient gets up for the day on the next day.
For the purpose of this study, the number of micturitions was defined as the number of times a patient has voided in the toilet as indicated on the Patient Voiding Diary. Average daily micturitions were calculated using the daily entries in the Patient Voiding Diary, which was completed over the 7 days prior to each study visit. Average daily number of micturitions were calculated as the total number of micturitions that occurred on a Complete Diary Day divided by the number of Complete Diary Days in the Patient Voiding Diary. A complete diary day required confirmation by the patient in the Patient Voiding Diary that all voids and leakages had been recorded for the diary day. Baseline was defined as the average number of micturitions occurring during the last evaluable diary prior to the Baseline Visit.
The number of UUI episodes was defined as the number of times a patient had checked “urge” as the reason for accidental urine leakage. Average daily UUI episodes at each study visit were calculated in the same manner as described above for the micturition endpoint. The UUI endpoint were analyzed using only OAB Wet patients.
For the analysis of the co-primary endpoints (change from baseline in average number of daily micturitions at Week 12 and change from baseline in average number of daily urge urinary incontinence episodes at Week 12, and placebo adjustment of each), a mixed model for repeated measure (MMRM) with restricted maximum likelihood estimation was used. This model corrects for dropout and accounts for the fact that measurements taken on the same patient over time tend to be correlated by using all available information on patients within the same covariate set to derive an estimate of the treatment effect for a dropout-free population. The analysis model for each efficacy endpoint includes terms for treatment, visit, OAB Type (Wet vs Dry), Sex (Female vs Male), Region (US vs Rest of World), baseline score, and interaction of visit by treatment.
Primary inferences were drawn from treatment differences for the changes from baseline derived from the MMRM models at Week 12. As part of secondary objectives, the treatment differences for each post baseline visit were also derived using the same MMRM model. […]

[1] = No prior anticholinergic use during the prior 12 months
[2] = No prior mirabegron use during the prior 12 months
[3] = Overall, events of Events/Censored
[4] = Prior anticholinergic use during the prior 12 months
[5] = Prior mirabegron use during the prior 12 months
[6] = Week 2, events of Events/Censored
[7] = Week 4, events of Events/Censored

Compound: O=C(Nc1ccc(C[C@@H]2CC[C@H]([C@H](O)c3ccccc3)N2)cc1)[C@@H]1CCc2nccc(=O)n21 [Vibegron, (6S)-N-[4-[[(2S,5R)−5-[(R)-hydroxy(phenyl)methyl]pyrrolidin−2-yl]methyl]phenyl]−4-oxo−7,8-dihydro−6H-pyrrolo[1,2-a]pyrimidine−6-carboxamide]
- Patients with at Least 50% Reduction in Urgency Episodes, Adjusted n (baseline to Week 4): 28
- Patients with at Least 50% Reduction in Urgency Episodes, Unadjusted (%) (baseline to Week 4): 25.2%
- Patients with at Least 50% Reduction in Urgency Episodes, Unadjusted n (baseline to Week 4): 31
- Urgency 50% responders, Active - Placebo CMH Difference (baseline to Week 4): 5.4
- Patients with at Least 50% Reduction in Urgency Episodes, Adjusted (%) (baseline to Week 8): 31.9%
- Patients with at Least 50% Reduction in Urgency Episodes, Adjusted n (baseline to Week 8): 39
- Patients with at Least 50% Reduction in Urgency Episodes, Unadjusted (%) (baseline to Week 8): 35.0%
- Patients with at Least 50% Reduction in Urgency Episodes, Unadjusted n (baseline to Week 8): 43
- Urgency 50% responders, Active - Placebo CMH Difference (baseline to Week 8): 12.4
- Patients with at Least 50% Reduction in Urgency Episodes, Adjusted (%) (baseline to Week 12): 36.9%
- Patients with at Least 50% Reduction in Urgency Episodes, Adjusted n (baseline to Week 12): 45
- Patients with at Least 50% Reduction in Urgency Episodes, Unadjusted (%) (baseline to Week 12): 43.1%
- Patients with at Least 50% Reduction in Urgency Episodes, Unadjusted n (baseline to Week 12): 53
- Urgency 50% responders, Active - Placebo CMH Difference (baseline to Week 12): 13.9
- Urgency Episodes, Week 12 CFB Mean (Males with BPH): −1.90
- Urgency Episodes, Week 12 CFB Mean (Males without BPH): −2.56
- Urgency Episodes, Week 12 CFB Mean (No Prior ACH Use in last 12 Mo.): −3.00
- Urgency Episodes, Week 12 CFB Mean (No Prior B3 Agonist Use in last 12 Mo.): −2.94
- Micturitions, 12-week change [1]: −2.1
- UUI Episodes, 12-week change [1]: −2.1
- Micturitions, 12-week change [2]: −2.0
- UUI Episodes, 12-week change [2]: −2.0
- Overall Time to First 50% Decrease in Urgency Episodes, 25th Percentile (Overall): 4.1 weeks
- Overall Time to First 50% Decrease in Urgency Episodes, 50th Percentile (Overall): 12.3 weeks
- Overall Time to First 50% Decrease in Urgency Episodes, Median (95% CI) (Overall): 12.3 (12.1 to 12.6) weeks
- Overall Time to First 100% Decrease in UUI Episodes, 25th Percentile (Overall): 8.1, NE weeks
- Overall Time to First 100% Decrease in UUI Episodes, Median (95% CI) (Overall): 13.3 (12.9 to NE) weeks
- Urgency Episodes, Week 12 CFB Mean (Overall): −2.93
- First 50% Decrease in Urgency Episodes, Events [3]: 256/270
- First 100% Decrease in UUI Episodes, Events [3]: 146/257
- Urgency Episodes, Week 12 CFB Mean (Prior ACH Use in last 12 Mo.): −2.50
- Urgency Episodes, Week 12 CFB Mean (Prior B3 Agonist Use in last 12 Mo.): −2.56
- Micturitions, 12-week change [4]: −1.97
- UUI Episodes, 12-week change [4]: −1.46
- Micturitions, 12-week change [5]: −2.83
- UUI Episodes, 12-week change [5]: −1.64
- Micturitions: LS Mean (95% CI) (Age <65 years): −0.2 (−0.6 to 0.2)
- Micturitions: LS Mean (95% CI) (Age ≥65 years): −0.9 (−1.3 to −0.4)
- Micturitions: LS Mean (95% CI) (Age ≥75 years (posthoc analysis)): −1.0 (−1.8 to −0.1)
- Micturitions: LS Mean (95% CI) (Females): −0.5 (−0.8 to −0.2)
- Micturitions: LS Mean (95% CI) (Males): −0.6 (−1.4 to 0.1)
- Micturitions: LS Mean (95% CI) (Non-White): −0.5 (−1.2 to 0.1)
- Micturitions: LS Mean (95% CI) (OAB Type: Dry): −0.7 (−1.4 to −0.1)
- Micturitions: LS Mean (95% CI) (OAB Type: Wet): −0.5 (−0.8 to −0.1)
- Micturitions: LS Mean (95% CI) (Overall): −0.5 (−0.8 to −0.2)
- Micturitions: LS Mean (95% CI) (Region: Non-US): −0.4 (−1.4 to 0.5)
- Micturitions: LS Mean (95% CI) (Region: US): −0.5 (−0.8 to −0.2)
- Micturitions: LS Mean (95% CI) (White): −0.5 (−0.8 to −0.2)
- Average Daily Number of Total Incontinence, Mean (SD) (Week 2): 2.53 (3.118)
- Average daily number of urgency episodes, Mean (SD) (Week 2): 6.47 (4.458)
- Average volume voided per micturition, Active - Placebo LS Mean Difference (Week 2): 11.9 mL
- Change from Baseline in Average Daily Number of Total Incontinence, LS Mean (SE) (Week 2): −1.6 (0.14)
- Change from baseline in average daily number of urgency episodes, LS Mean (Week 2): −1.5
- Change from baseline in average volume voided per micturition, LS Mean (SE) (Week 2): 14.2 (3.02) mL
- Estimated Incidence of Subjects with 50% Decrease from Baseline (urgency episodes) (Week 2): 19.6
- Estimated Incidence of Subjects with 100% Decrease from Baseline (UUI episodes) (Week 2): 7.4
- Total Incontinence, Active - Placebo LS Mean Difference (SE) (Week 2): −0.7 (0.14)
- Urgency episodes, Active - Placebo LS Mean Difference (Week 2): −0.6
- First 50% Reduction in Urgency Episodes, Events [6]: 103/423
- First 100% Reduction in UUI Episodes, Events [6]: 30/373
- Average volume voided per micturition, Week 2 Mean (SD) (Week 2, vibegron 75 mg, tolterodine ER 4 mg): 165.6 (74.26) mL
- Average Daily Number of Total Incontinence, Mean (SD) (Week 4): 2.28 (3.239)
- Average daily number of urgency episodes, Mean (SD) (Week 4): 6.02 (4.458)
- Average volume voided per micturition, Active - Placebo LS Mean Difference (Week 4): 14.5 mL
- Average volume voided per micturition, Week 4 Mean (SD) (Week 4): 172.6 (76.57) mL
- Change from Baseline in Average Daily Number of Total Incontinence, LS Mean (SE) (Week 4): −1.9 (0.14)
- Change from baseline in average daily number of urgency episodes, LS Mean (Week 4): −1.9
- Change from baseline in average volume voided per micturition, LS Mean (SE) (Week 4): 18.9 (3.15) mL
- Estimated Incidence of Subjects with 50% Decrease from Baseline (urgency episodes) (Week 4): 21.1
- Estimated Incidence of Subjects with 100% Decrease from Baseline (UUI episodes) (Week 4): 9.2
- Total Incontinence, Active - Placebo LS Mean Difference (SE) (Week 4): −0.8 (0.14)
- Urgency episodes, Active - Placebo LS Mean Difference (Week 4): −0.8
- First 50% Reduction in Urgency Episodes, Events [7]: 111/415
- First 100% Reduction in UUI Episodes, Events [7]: 37/366
- Average Daily Number of Total Incontinence, Mean (SD) (Week 8): 2.05 (3.245)
- Average daily number of urgency episodes, Mean (SD) (Week 8): 5.58 (4.399)
- Average volume voided per micturition, Active - Placebo LS Mean Difference (Week 8): 18.3 mL
- Average volume voided per micturition, Week 8 Mean (SD) (Week 8): 173.4 (81.95) mL
- Change from Baseline in Average Daily Number of Total Incontinence, LS Mean (SE) (Week 8): −2.1 (0.15)
- Change from baseline in average daily number of urgency episodes, LS Mean (Week 8): −2.4

Source: US20230027066A1 (Urovant Sciences GmbH, priority 2019, published 2023)
